Laboratory results: ChEMBL document CHEMBL1136834 (Bioorg Med Chem Lett, 2009)
Calls of active or inactive are those of the source. The calls are words filed in the database; no cut-off is given here.

Columns and labels:
Mu-type opioid receptor [1] = target: T1, Mu-type opioid receptor (Homo sapiens, UniProt P35372); test: Displacement of [3H]DAMGO from human mu opioid receptor expressed in CHO cells; format: cell-based
[2] = target: Delta-type opioid receptor (Homo sapiens, UniProt P41143); test: Displacement of [3H]Naltrindole from human delta opioid receptor expressed in CHO cells; format: cell-based
[3] = target: T2, Kappa-type opioid receptor (Homo sapiens, UniProt P41145); test: Displacement of [3H]U69,593 from human kappa opioid receptor expressed in CHO cells; format: cell-based
[4] = target: T2, Kappa-type opioid receptor; test: Agonist activity at human kappa opioid receptor expressed in CHO cells assessed as stimulation of [35S]GTPgammaS binding; format: functional, cell-based
Mu-type opioid receptor [5] = target: T1, Mu-type opioid receptor; test: Antagonist activity at human mu opioid receptor expressed in CHO cells assessed as inhibition of DAMGO-induced [35S]GTPgammaS binding; format: functional, cell-based
Mu-type opioid receptor [6] = target: T1, Mu-type opioid receptor; test: Agonist activity at human mu opioid receptor expressed in CHO cells assessed as stimulation of [35S]GTPgammaS binding; format: functional, cell-based
Mu-type opioid receptor [7] = target: T1, Mu-type opioid receptor; test: Agonist activity at human mu opioid receptor expressed in CHO cells assessed as stimulation of [35S]GTPgammaS binding relative to basal [35S]GTPgammaS binding; format: functional, cell-based
CHO [8] = test: Ratio of Ki for human delta opioid receptor to Ki for human kappa opioid receptor expressed in CHO cells; format: cell-based
CHO [9] = test: Ratio of Ki for human mu opioid receptor to Ki for human kappa opioid receptor expressed in CHO cells; format: cell-based
Mu-type opioid receptor [10] = target: T1, Mu-type opioid receptor; test: Antagonist activity at human mu opioid receptor expressed in CHO cells assessed as inhibition of DAMGO-induced [35S]GTPgammaS binding at 10 uM; format: functional, cell-based
[11] = Displacement of [3H]Naltrindole from human delta opioid receptor expressed in CHO cells

T2 sequence (P41145 whole entry): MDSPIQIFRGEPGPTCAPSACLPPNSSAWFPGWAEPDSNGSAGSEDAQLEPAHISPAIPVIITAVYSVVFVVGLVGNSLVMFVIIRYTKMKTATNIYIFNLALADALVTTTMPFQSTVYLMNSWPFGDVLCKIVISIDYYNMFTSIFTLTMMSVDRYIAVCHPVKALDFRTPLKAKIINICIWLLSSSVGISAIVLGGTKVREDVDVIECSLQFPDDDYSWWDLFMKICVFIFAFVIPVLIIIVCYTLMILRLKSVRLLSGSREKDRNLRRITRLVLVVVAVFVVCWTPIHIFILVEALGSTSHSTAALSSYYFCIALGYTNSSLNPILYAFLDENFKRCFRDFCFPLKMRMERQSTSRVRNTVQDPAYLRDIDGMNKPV
T1 sequence (P35372 whole entry): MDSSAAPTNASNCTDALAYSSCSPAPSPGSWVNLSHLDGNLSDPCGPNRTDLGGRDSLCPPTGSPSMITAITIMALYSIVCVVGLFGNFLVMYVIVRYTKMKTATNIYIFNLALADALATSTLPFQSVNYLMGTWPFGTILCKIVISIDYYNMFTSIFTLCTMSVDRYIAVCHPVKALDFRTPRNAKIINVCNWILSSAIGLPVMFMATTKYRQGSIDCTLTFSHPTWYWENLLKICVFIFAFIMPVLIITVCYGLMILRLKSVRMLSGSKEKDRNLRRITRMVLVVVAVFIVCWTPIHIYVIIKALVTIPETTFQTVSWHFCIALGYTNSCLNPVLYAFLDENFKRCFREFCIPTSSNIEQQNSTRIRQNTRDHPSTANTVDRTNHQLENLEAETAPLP
Chain of Delta-type opioid receptor (P41143 whole entry): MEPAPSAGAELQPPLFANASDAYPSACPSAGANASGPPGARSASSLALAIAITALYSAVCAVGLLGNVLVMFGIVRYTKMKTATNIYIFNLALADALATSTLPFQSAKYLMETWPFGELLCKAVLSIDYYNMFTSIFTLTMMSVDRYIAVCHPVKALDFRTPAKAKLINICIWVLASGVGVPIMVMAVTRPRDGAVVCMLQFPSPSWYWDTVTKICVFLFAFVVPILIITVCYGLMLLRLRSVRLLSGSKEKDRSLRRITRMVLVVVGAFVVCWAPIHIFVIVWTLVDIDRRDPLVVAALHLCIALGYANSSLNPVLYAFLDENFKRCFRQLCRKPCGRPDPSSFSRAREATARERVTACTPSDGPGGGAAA

SMILES | Ki (Mu-type opioid receptor [1]) | Ki [2] | Ki [3] | EC50 [4] | Imax (Mu-type opioid receptor [5]) | Emax (Mu-type opioid receptor [7]) | Ratio Ki (CHO [8]) | Ratio Ki (CHO [9]) | also measured
Cc1nc2cc3c(cc2[nH]1)[C@@]1(C)CCN(CC2CC2)C(C3)[C@@H]1C | 0.77 nM | 18 nM | 0.05 nM | 5.8 nM | 100% | 55% |  |  | IC50 (Mu-type opioid receptor [5]; read-out: IC50): 11000 nM; EC50 (Mu-type opioid receptor [6]): 18 nM
C[C@H]1C2Cc3cc4[nH]cnc4cc3[C@@]1(C)CCN2CC1CC1 | 0.31 nM | 5.1 nM | 0.063 nM | 4.7 nM |  |  |  |  | IC50 (Mu-type opioid receptor [5]; read-out: IC50): 170 nM; EC50 (Mu-type opioid receptor [6]): 9.8 nM
C[C@H]1C2Cc3ccc4[nH]nnc4c3[C@@]1(C)CCN2CC1CC1 |  |  |  | 8.6 nM | 98% | 0.58% |  |  | IC50 (Mu-type opioid receptor [5]; read-out: IC50): 99 nM
C[C@H]1[C@H]2Cc3ccc(O)cc3[C@]1(C)CCN2CC1CC1 [CYCLAZOCINE] |  | 2 nM | 0.07 nM | 1.3 nM |  |  |  |  | 
C[C@H]1C2Cc3cc4nc(O)[nH]c4cc3[C@@]1(C)CCN2CC1CC1 | 60 nM | 730 nM | 12 nM |  |  |  | 61 | 5 | 
C[C@H]1C2Cc3cc4nc[nH]c4cc3[C@@]1(C)CCN2CC1CC1 |  |  |  |  | 89% | 22% |  |  | 
Cc1nc2c3c(ccc2[nH]1)CC1[C@H](C)[C@]3(C)CCN1CC1CC1 | 2.5 nM | 160 nM | 0.51 nM |  |  |  | 310 | 5 | 
C[C@H]1C2Cc3ccc4[nH]cnc4c3[C@@]1(C)CCN2CC1CC1 | 9.5 nM | 680 nM | 0.92 nM |  |  |  | 740 | 10 | 
C[C@@H](NC(=O)[C@@H](N)Cc1ccc(O)cc1)C(=O)NCC(=O)N(C)[C@@H](Cc1ccccc1)C(=O)NCCO [DAMGO] |  |  |  |  | inactive |  |  |  | IC50 (Mu-type opioid receptor [5]; cho): Not Active
C[C@H]1C2Cc3cc4nn[nH]c4cc3[C@@]1(C)CCN2CC1CC1 |  |  |  | 77 nM |  | < 20% |  |  | Imax (Mu-type opioid receptor [10]): 73%
C[C@H]1C2Cc3cc4cc[nH]c4cc3[C@@]1(C)CCN2CC1CC1 | 18 nM |  | 7 nM |  |  |  | 36 | 3 | Ki [11]: 250 nM
